Measured values published in patent US5399570A, “Aspartic acid derivatives, and their use for inhibiting platelete aggregation” (Cassella Aktiengesellschaft, priority 1992, dated 1995).
Read-outs that look alike come from different tables or passages of the source.

Assays:
[1] = tested on: filtered, plasma-free human platelets; experiment: inhibition of aggregation of filtered human platelets after ADP or thrombin stimulation; assay type: cell-based; details: Platelet
Protocol: (§1) The compounds of the formula I are in particular tested for their inhibiting action in blood platelet aggregation and the adhesion of fibrinogen to blood platelets. The measurement of aggregation and the binding of ^125 I-fibrinogen is carried out on filtered, plasma-free human platelets. Platelet activation is effected by means of ADP or thrombin.
As a functional test, the inhibition of aggregation of filtered human platelets is measured after ADP or thrombin stimulation by the compounds according to the invention. The IC50 value of inhibition is given.

[2] = molecular target: T1, glycoprotein IIb/IIIa localised on blood platelets (fibrinogen receptor) (Homo sapiens, UniProt P05106+P08514); experiment: inhibition of binding of ^125 I-fibrinogen to human platelets after stimulation with ADP; details: after stimulation with ADP (10 μM)
T1 construct: carried out on filtered, plasma-free human platelets; endogenous in cells; host or cells: filtered, plasma-free human platelets, stimulated with ADP (10 μM)
T1 sequence (P08514 32-887 limits assumed): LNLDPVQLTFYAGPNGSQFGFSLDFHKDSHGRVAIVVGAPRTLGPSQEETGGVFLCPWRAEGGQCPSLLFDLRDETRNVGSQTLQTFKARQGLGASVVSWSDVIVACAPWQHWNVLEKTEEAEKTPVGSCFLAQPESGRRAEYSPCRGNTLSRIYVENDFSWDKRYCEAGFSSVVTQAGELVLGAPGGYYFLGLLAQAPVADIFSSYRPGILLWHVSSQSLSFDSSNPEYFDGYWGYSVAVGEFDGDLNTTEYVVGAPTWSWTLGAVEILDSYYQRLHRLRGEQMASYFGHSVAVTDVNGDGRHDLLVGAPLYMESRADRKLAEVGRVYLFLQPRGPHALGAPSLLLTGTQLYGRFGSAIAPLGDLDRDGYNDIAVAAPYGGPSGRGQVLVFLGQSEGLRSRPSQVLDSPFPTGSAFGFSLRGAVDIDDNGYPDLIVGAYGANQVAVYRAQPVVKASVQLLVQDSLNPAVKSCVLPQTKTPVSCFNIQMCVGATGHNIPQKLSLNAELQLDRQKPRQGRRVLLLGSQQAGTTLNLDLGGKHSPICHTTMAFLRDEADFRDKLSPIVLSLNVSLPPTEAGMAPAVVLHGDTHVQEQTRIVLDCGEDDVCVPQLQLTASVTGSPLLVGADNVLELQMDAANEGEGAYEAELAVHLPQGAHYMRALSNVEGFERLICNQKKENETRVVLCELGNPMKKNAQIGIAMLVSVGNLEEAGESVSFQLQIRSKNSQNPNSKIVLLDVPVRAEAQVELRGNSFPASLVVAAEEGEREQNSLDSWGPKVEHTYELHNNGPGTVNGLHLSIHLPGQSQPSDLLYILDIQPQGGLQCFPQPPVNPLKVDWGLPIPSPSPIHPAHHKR
T1 sequence (P05106 27-788): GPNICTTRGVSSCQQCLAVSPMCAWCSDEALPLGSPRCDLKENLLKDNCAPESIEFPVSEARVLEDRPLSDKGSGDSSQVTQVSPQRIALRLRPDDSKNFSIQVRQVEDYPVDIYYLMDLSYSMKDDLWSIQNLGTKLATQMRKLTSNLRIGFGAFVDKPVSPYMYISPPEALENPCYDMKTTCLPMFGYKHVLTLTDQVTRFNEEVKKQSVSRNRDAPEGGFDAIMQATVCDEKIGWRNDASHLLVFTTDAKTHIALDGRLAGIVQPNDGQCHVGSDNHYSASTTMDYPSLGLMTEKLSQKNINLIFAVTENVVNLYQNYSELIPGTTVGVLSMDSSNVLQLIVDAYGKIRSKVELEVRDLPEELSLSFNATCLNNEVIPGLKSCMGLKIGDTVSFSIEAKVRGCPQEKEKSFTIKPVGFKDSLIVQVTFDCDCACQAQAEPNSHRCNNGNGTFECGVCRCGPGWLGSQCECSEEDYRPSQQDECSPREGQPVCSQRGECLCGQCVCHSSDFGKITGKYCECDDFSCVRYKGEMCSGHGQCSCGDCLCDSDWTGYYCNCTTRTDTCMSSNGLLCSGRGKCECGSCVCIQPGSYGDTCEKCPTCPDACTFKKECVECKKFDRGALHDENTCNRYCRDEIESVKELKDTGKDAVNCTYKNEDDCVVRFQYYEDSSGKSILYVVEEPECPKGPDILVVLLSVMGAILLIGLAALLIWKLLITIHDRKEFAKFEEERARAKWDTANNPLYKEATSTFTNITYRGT
Source text: Integrins are cell membrane glycoproteins and mediate cell adhesion by interaction with a large number of extracelluar proteins, such as fibronectin, laminin, fibrinogen, collagen, vitronectin, and yon Willebrand factor or with other cell membrane proteins, such as, for example, ICAM-1. An important receptor of the integrin family is glycoprotein IIb/IIIa localised on blood platelets (fibrinogen receptor)--a key protein in platelet-platelet interaction and thrombus formation. A central fragment in the receptor recognition sequence of these proteins is the tripeptide Arg--Gly--Asp (E. Ruoslahti and M. D. Pierschbacher, Science 238 (1987) 491-497; D. R. Phillips, I. F. Charo, L. V. Parise and L. A. Fitzgerald, Blood 71 (1988) 831-843).
as §1
The Ki value of the inhibition of binding of ^125 I-fibrinogen after stimulation with ADP (10 μm) is given.
Reference: J. S. Bennett and G. Vilaire, J. Clin. Invest. 64, (1979), 1393-1401.

[3] = ADP stimulation, read-out: Inhibition of platelet aggregation ADP, IC50 value of inhibition
[4] = thrombin stimulation, read-out: Inhibition of platelet aggregation Thrombin, IC50 value of inhibition

IC50 [1, 3] [µM]	IC50 [1, 4] [µM]	Ki [2] [µM]	SMILES
15	10	–	N=C(N)N1CCC(Cc2ccc(C(=O)N[C@@H](CC(=O)O)C(=O)NC3CCCCC3)cc2)CC1 [Example 2, p-(4-(N-Amidinopiperidinyl)methyl)benzoyl-L-aspartylcyclohexylamide]
20	15	10	CC(C)NC(=O)[C@H](CC(=O)O)NC(=O)c1ccc(CC2CCN(C(=N)N)CC2)cc1 [Example 4]
8	4	3.1	CN(CC(=O)N[C@@H](CC(=O)O)C(=O)NC(c1ccccc1)c1ccccc1)C(=O)[C@H]1CC[C@H](CNC(=N)N)CC1 [Example 12, trans-4 -Guanidinomethylcyclohexanecarboxylsarcosyl-L-aspartylbenzhydrylamide]
4.5	1.5	0.8	CC(C)[C@H](NC(=O)[C@H](CC(=O)O)NC(=O)c1ccc(OC2CCN(C(=N)N)CC2)cc1)C(=O)O [Example 14, p-(4-N-Amidinopiperidinyloxy)benzoyl-L-aspartyl-L-valine]
15	5	–	N=C(N)N1CCC(Cc2ccc(C(=O)N[C@@H](CC(=O)O)C(=O)NCCC(c3ccccc3)c3ccccc3)cc2)CC1 [Example 3]
8	2	–	CC(C)[C@H](NC(=O)[C@H](CC(=O)O)NC(=O)c1ccc(CC2CCN(C(=N)N)CC2)cc1)C(=O)O [Example 1, p-(4-(N-Amidinopiperidinyl)methyl)benzoyl-L-aspartyl-L-valine]
2	2	1.8	CN(CC(=O)N[C@@H](CC(=O)O)C(=O)NCCC(c1ccccc1)c1ccccc1)C(=O)c1ccc(CNC(=N)N)cc1 [Example 9, p-Guanidinomethylbenzoylsarcosyl-L-aspartyl-3,3-diphenylpropylamide]
